Experiment [1] can be described thus: Isothermal fluorescence titration (IFT), LMWH. The format is binding. The following applies: for affinity for LMWH: IFT, both COOH-terminal peptides compared. Here is the method: (§1) To study the interaction between CXCL9(74-93) and GAGs, titration experiments were performed as described by Gerlza et al. ([46]) using TAMRA-labeled synthetic CXCL9(74-93), TAMRA-labeled synthetic CXCL9(74-103), HS (Iduron BN1, Manchester, UK), low molecular weight heparin (LMWH; Iduron BN5), and chondroitin sulfate (CS; Carbosynth, Compton, UK).

Experiment [2] is described as follows: Isothermal fluorescence titration (IFT), HS. The format is binding. The following applies: for affinity for HS: IFT, both COOH-terminal peptides compared. Here is the method: as §1
The test system of experiment [3] is cellular GAGs on CHO cells. The experiment is described as follows: Binding of biotinylated peptides to CHO cells (cellular GAGs), flow cytometry. The following applies: for binding to CHO cells: NH2-terminally biotinylated peptide, streptavidin-allophycocyanin. The experiment is classed as cell-based, Chinese hamster. Here is the method: Chinese hamster ovary (CHO) cells were a gift from M. Parmentier (ULB, Brussels, Belgium) and were cultured in Ham’s F-12 medium (with L-glutamine; Lonza, Belgium) supplemented with 10% fetal calf serum (FCS) and 0.8% G418 (Geneticin®; Life Technologies), as described ([44]). To inhibit sulfation of cellular GAGs, CHO cells were cultured in the presence of 100 mM sodium chlorate (NaClO3) for 24 h as previously described ([42]).
Binding of biotinylated CXCL9(74-103) and CXCL9(74-93) to CHO cells was assessed by flow cytometry as recently described ([42]). Briefly, cells were detached with phosphate-buffered saline (PBS) with 0.02% ethylenediaminetetraacetic acid (EDTA) and incubated with NH2-terminally biotinylated peptides. Subsequently, cells were incubated with streptavidin-allophycocyanin (BD Biosciences, San Jose, CA, USA) and analyzed by flow cytometry (FACSCalibur, BD Biosciences). To confirm inhibition of sulfation of cellular GAGs, part of the cells were stained with a mouse monoclonal anti-human HS antibody (Immunosource, Schilde, Belgium) and a secondary phycoerythrin-labeled goat anti-mouse antibody (BD Biosciences). Finally, cells were analyzed by flow cytometry. Analogously, binding of 100 nM biotinylated CXCL8 in the presence or absence of CXCL9(74-103) or CXCL9(74-93) was compared on CHO cells.
Figure 2 CXCL9(74-93) interacts with cellular glycosaminoglycans (GAGs). The interaction of the COOH-terminal CXCL9 peptides with Chinese hamster ovary (CHO) cells was assessed by flow cytometric analysis. (A) CHO cells were treated with dilutions of NH2-terminally biotinylated CXCL9(74-103) and CXCL9(74-93), which were detected by streptavidin-allophycocyanin. (B) To ensure that the binding of CXCL9(74-93) was GAG-mediated, CHO cells were treated with sodium chlorate (NaClO3) to reduce the sulfation of GAGs. Binding of biotinylated CXCL9(74-93) to cells, treated or untreated with NaClO3, was detected by streptavidin-allophycocyanin. The mean (+SEM) fluorescence intensity of bound biotinylated CXCL9 peptides to CHO cells is indicated on the y-axis (n ≥ 4). A statistical comparison to evaluate the binding of biotinylated peptides on CHO cells [compared to the corresponding concentration of CXCL9(74-103) (A) or to the binding to cells not treated with NaClO3 (B)] was performed using the Mann–Whitney U-test (*p < 0.05; **p < 0.01).
On the technique in general: In flow cytometry, cells or beads pass a laser one at a time.

Experiment [4] concerns CXCL8(1-77) binding to heparan sulfate (HS). The experiment is described as follows: Competition with CXCL8 for binding to immobilized HS (ELISA-like). Details: species or system human. The following applies: CXCL8(1-77) 0-300 nM, n ≥ 4, Figure 3B. Here is the method: (§2) The ability of the COOH-terminal peptides of CXCL9 and CXCL4 to compete for GAG binding with the inflammatory chemokines CXCL8 and CXCL1 was evaluated on heparin-binding plates [BD Biosciences or produced by Jason Whittle (School of Engineering/Future Industries Institute, University of South Australia, Australia)] ([42], [47]). In brief, GAGs (heparin, HS, and CS; Iduron; 25 µg/ml) were coated overnight at room temperature. Dilutions of COOH-terminal CXCL9 or CXCL4 peptide combined with recombinant human CXCL8(1-77) or recombinant murine CXCL1(1-72) (Peprotech, Rocky Hill, NJ, USA) were added in duplicate and incubated for 2 h at 37°C. Subsequently, bound CXCL8 or CXCL1 was detected with biotinylated polyclonal rabbit anti-human CXCL8 or biotinylated polyclonal goat anti-mouse CXCL1 (Peprotech) and horse radish peroxidase-labeled streptavidin. Finally, the peroxidase activity was quantified at 450 nm.
Figure 3 CXCL9(74-93) competes with CXCL8 for binding to heparin, heparan sulfate (HS), and cellular glycosaminoglycans (GAGs). Competition between CXCL8 and COOH-terminal CXCL9 or CXCL4 peptides for binding to immobilized heparin (A) or HS (B) and to Chinese hamster ovary (CHO) cells (C) was performed. […] Bound CXCL8 was detected with biotinylated anti-human CXCL8 antibodies. (C) Binding of NH2-terminally biotinylated CXCL8(1-77) (300 nM) to CHO cells in the presence or absence of an excess CXCL9 peptide was detected by streptavidin-allophycocyanin and flow cytometry. The mean (± SEM) percentage inhibition of binding of CXCL8(1-77) to heparin, HS or cellular GAGs is indicated on the y-axis (n ≥ 4). Statistical comparison of the different competitors with CXCL9(74–103) was performed using the Mann–Whitney U-test (*p < 0.05).

For experiment [5], the system named is CXCL1(1-72) binding to heparan sulfate (HS). The experiment is described as follows: Competition with CXCL1 for binding to immobilized HS. The following applies: n ≥ 3, Figure 6A; for maximum inhibition of CXCL1 binding to HS: maximum achieved; for reduction of CXCL1 binding to HS: mean. The arrangement: species or system murine. Here is the method: as §2
(§3) Competition between CXCL1 and COOH-terminal CXCL9 peptides for binding to immobilized heparan sulfate (HS) (A) and chondroitin sulfate (CS) (B) was performed. […] Bound CXCL1 was detected with biotinylated polyclonal goat anti-mouse CXCL1 antibodies. The mean (± SEM) percentage inhibition of CXCL1 binding to GAGs is indicated on the y-axis (n ≥ 3). Statistical comparison of the different competitors with CXCL9(74–103) was performed using the Mann–Whitney U-test.

Experiment [6] deals with CXCL1(1-72) binding to chondroitin sulfate (CS). In words: Competition with CXCL1 for binding to immobilized CS. The arrangement: species or system murine. The following applies: n ≥ 3, Figure 6B; for maximum inhibition of CXCL1 binding to CS: maximum achieved. Here is the method: as §2, §3

The term Kd denotes the concentration at which binding is half-saturated.

As for “74KKKQKNGKKHQKKKVLKVRKSQRSRQKKTT103 [CXCL9(74-103), COOH-terminal peptide of CXCL9]”, in experiment [1], the “affinity for LMWH” value was “high and comparable affinity”. Also, the “affinity for HS” value in experiment [2] is “high and comparable affinity”. The “binding to CHO cells” value in experiment [3] (n ≥ 4, Figure 2A) is recorded as “dose-dependent binding”. In addition, the “inhibition of CXCL8 binding on HS-coated plates” value in experiment [4] is “equally efficient in inhibiting CXCL8 binding”. In experiment [5], the “maximum inhibition of CXCL1 binding to HS” value was found to be 72%. For the same substance, the “reduction of CXCL1 binding to HS” value in experiment [5] (threefold molar excess compared to CXCL1) is listed as 43%. Moreover, the “maximum inhibition of CXCL1 binding to CS” value in experiment [6] is 63%.
Regarding “74KKKQKNGKKHQKKKVLKVRK93 [CXCL9(74-93), COOH-terminal peptide of CXCL9 lacking the 10 COOH-terminal amino acids of CXCL9(74-103)]”, the “affinity for LMWH” value in experiment [1] was “high and comparable affinity”. Besides, in experiment [1] (isothermal fluorescence titration, TAMRA-labeled peptide, read-out: affinity (KD value) for LMWH), the Kd came to 63 ± 13 nM. For the same substance, the “affinity for HS” value in experiment [2] is “high and comparable affinity”. In experiment [2] (isothermal fluorescence titration, TAMRA-labeled peptide, biphasic binding isotherm, fit of only the initial high-affinity phase), this substance returned a Kd of 1 nM. Moreover, the “binding to CHO cells after reduction of GAG sulfation” value in experiment [3] (CHO cells treated with 100 mM NaClO3 (24 h) vs untreated, biotinylated peptide, Figure 2B) was “significantly reduced”. Besides, the “affinity to cellular GAGs relative to CXCL9(74-103)” value in experiment [3] (CHO cells, biotinylated peptides, n ≥ 4, Figure 2A) is reported as “lower affinity to cellular GAGs”. Besides, the “binding to CHO cells” value in experiment [3] (n ≥ 4, Figure 2A) was “dose-dependent binding”. For the same substance, the “inhibition of CXCL8 binding on HS-coated plates” value in experiment [4] is given as “equally efficient in inhibiting CXCL8 binding”. Further, the “reduction of CXCL1 binding to HS” value in experiment [5] (10-fold molar excess) was 39%. Also, in experiment [5], the “maximum inhibition of CXCL1 binding to HS” value is on record as 52% and the “competition for CXCL1 binding to HS” value is listed as “less potent competitor than CXCL9(74-103)”. Besides, in experiment [6], the “maximum inhibition of CXCL1 binding to CS” value worked out at 52% and the “amount needed for same reduction of CXCL1 binding to CS relative to CXCL9(74-103)” value is reported as “three times more”.

The values are drawn from article PMC5423902, “CXCL9-Derived Peptides Differentially Inhibit Neutrophil Migration In Vivo through Interference with Glycosaminoglycan Interactions” (Frontiers in Immunology, 2017).
